From patent US12673961B2 (Agios Pharmaceuticals, Inc., priority 2022, dated 2026)

Biological target: T1, human PAH with the R408W mutation (Homo sapiens, UniProt P00439, R408W)
T1 construct: expressed in transfected cells
T1 sequence (P00439 1-452 R408W): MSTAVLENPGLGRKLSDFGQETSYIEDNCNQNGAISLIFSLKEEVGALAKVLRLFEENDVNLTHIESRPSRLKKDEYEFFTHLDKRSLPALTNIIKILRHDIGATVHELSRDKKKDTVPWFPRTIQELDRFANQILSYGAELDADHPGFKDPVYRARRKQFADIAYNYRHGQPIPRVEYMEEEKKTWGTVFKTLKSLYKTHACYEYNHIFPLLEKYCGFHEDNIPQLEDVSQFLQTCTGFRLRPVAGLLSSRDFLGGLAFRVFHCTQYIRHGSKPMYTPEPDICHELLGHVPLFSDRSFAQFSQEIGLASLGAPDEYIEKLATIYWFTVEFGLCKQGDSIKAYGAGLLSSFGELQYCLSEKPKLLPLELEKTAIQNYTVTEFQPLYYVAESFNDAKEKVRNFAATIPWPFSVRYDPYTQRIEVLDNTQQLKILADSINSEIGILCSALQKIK
Assay: Cell Based Phenylalanine Flux Assay;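 note: Ten-point dose curve from 2-fold serial dilutions, run in duplicate at 0.5% DMSO final, tracer step used 20 µM sepiapterin and 800 µM labeled phenylalanine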
Settings: A375 cells expressing human R408W PAH; 24 hrs with compound, then sepiapterin and 13C9,15N-Phenylalanine for 4 hours; 13C-Tyrosine by LC-MS; average where tested multiple times; read-out: AC50

Clc1cccn2nc([C@@H]3c4nc[nH]c4CCN3c3nnc(-c4ccncn4)o3)cc12 [Example 2182, (S)-2-(4-(4-chloropyrazolo [1,5-a]pyridin-2-yl)-1,4,6,7-tetrahydro-5H-imidazo[4,5-c]pyridin-5-yl)-5-(pyrimidin-4-yl)-1,3,4-oxadiazole] and Clc1cccn2nc([C@@H]3c4nc[nH]c4CCN3c3nnc(-c4cccnc4)o3)cc12 [Example 2262, (S)-2-(4-(4-chloropyrazolo [1,5-a]pyridin-2-yl)-1,4,6,7-tetrahydro-5H-imidazo[4,5-c]pyridin-5-yl)-5-(pyridin-3-yl)-1,3,4-oxadiazole] fall in the same range of AC50: 0.5 to 1 µM for the first, 0.5 to 1 µM for the second.

Cc1cccn2nc([C@H]3c4nc[nH]c4CCN3c3nnc(C4(C)CC4)o3)cc12 [Example 2188, (R)-2-(1-methylcyclopropyl)-5-(4-(4-methylpyrazolo[1,5-a]pyridin-2-yl)-1,4,6,7-tetrahydro-5H-imidazo[4,5-c]pyridin-5-yl)-1,3,4-oxadiazole] and CC1(c2nnc(N3CCc4[nH]cnc4[C@@H]3c3cc4c(Cl)cccn4n3)o2)CC1 [Example 2258, (R)-2-(4-(4-chloropyrazolo [1,5-a]pyridin-2-yl)-1,4,6,7-tetrahydro-5H-imidazo [4,5-c]pyridin-5-yl)-5-(1-methylcyclopropyl)-1,3,4-oxadiazole] cannot be ordered by AC50: > 5 µM for the first, > 5 µM for the second.

Cc1ncccc1-c1nnc(N2CCc3[nH]cnc3[C@H]2c2cc3c(C)cccn3n2)o1 [Example 2206, (S)-2-(4-(4-methylpyrazolo [1,5-a]pyridin-2-yl)-1,4,6,7-tetrahydro-5H-imidazo [4,5-c]pyridin-5-yl)-5-(2-methylpyridin-3-yl)-1,3,4-oxadiazole] and Cc1cccn2nc([C@@H]3c4nc[nH]c4CCN3c3nnc(-c4cccnc4F)o3)cc12 [Example 2264, (S)-2-(2-fluoropyridin-3-yl)-5-(4-(4-methylpyrazolo[1,5-a]pyridin-2-yl)-1,4,6,7-tetrahydro-5H-imidazo[4,5-c]pyridin-5-yl)-1,3,4-oxadiazole] fall in the same range of AC50: 0.5 to 1 µM for the first, 0.5 to 1 µM for the second.

First: Cc1ncccc1-c1nnc(N2CCc3[nH]cnc3[C@H]2c2cc3c(C(F)(F)F)cccn3n2)o1 [Example 2208, (S)-2-(2-methylpyridin-3-yl)-5-(4-(4-(trifluoromethyl)pyrazolo [1,5-a]pyridin-2-yl)-1,4,6,7-tetrahydro-5H-imidazo [4,5-c]pyridin-5-yl)-1,3,4-oxadiazole]
Second: Cc1ncccc1-c1nnc(N2CCc3[nH]cnc3[C@H]2c2cc3c(F)cccn3n2)o1 [Example 2212, (S)-2-(4-(4-fluoropyrazolo [1,5-a]pyridin-2-yl)-1,4,6,7-tetrahydro-5H-imidazo [4,5-c]pyridin-5-yl)-5-(2-methylpyridin-3-yl)-1,3,4-oxadiazole]
The AC50 of the first is higher: 0.5 to 1 µM for the first, < 0.5 µM for the second.

Compared with Cc1ncccc1-c1nnc(N2CCc3[nH]cnc3[C@H]2c2cc3c(C(F)F)cccn3n2)o1 [Example 2210, (S)-2-(4-(4-(difluoromethyl)pyrazolo[1,5-a]pyridin-2-yl)-1,4,6,7-tetrahydro-5H-imidazo [4,5-c]pyridin-5-yl)-5-(2-methylpyridin-3-yl)-1,3,4-oxadiazole], Cc1ncccc1-c1nnc(N2CCc3[nH]cnc3[C@@H]2c2cc3c(F)cccn3n2)o1 [Example 2213, (R)-2-(4-(4-fluoropyrazolo [1,5-a]pyridin-2-yl)-1,4,6,7-tetrahydro-5H-imidazo [4,5-c]pyridin-5-yl)-5-(2-methylpyridin-3-yl)-1,3,4-oxadiazole] is higher in AC50: 1 to 5 µM for the first, > 5 µM for the second.

First: Cc1cccn2nc([C@@H]3c4nc[nH]c4CCN3C(=O)c3nc(C(F)F)nn3C)cc12 [Example 2214, (S)-(3-(difluoromethyl)-1-methyl-1H-1,2,4-triazol-5-yl)(4-(4-methylpyrazolo[1,5-a]pyridin-2-yl)-6,7-dihydro-1H-imidazo[4,5-c]pyridin-5(4H)-yl)methanone]
Second: Cc1nnc(C(=O)N2CCc3[nH]cnc3[C@H]2c2cc3c(OC(F)(F)F)cccn3n2)o1 [Example 2218, (S)-(5-methyl-1,3,4-oxadiazol-2-yl)(4-(4-(trifluoromethoxy)pyrazolo [1,5-a]pyridin-2-yl)-6,7-dihydro-1H-imidazo[4,5-c]pyridin-5(4H)-yl)methanone]
The AC50 of the first is lower: < 0.5 µM for the first, 1 to 5 µM for the second.

First: CC(C)(O)c1ncc(C(=O)N2CCc3[nH]cnc3[C@H]2c2cc3c(Cl)cccn3n2)o1 [Example 2216]
Second: CC(F)(F)c1nnc(N2CCc3[nH]cnc3[C@@H]2c2cc3c(Cl)cccn3n2)o1 [Example 2232, (R)-2-(4-(4-chloropyrazolo [1,5-a]pyridin-2-yl)-1,4,6,7-tetrahydro-5H-imidazo [4,5-c]pyridin-5-yl)-5-(1,1-difluoroethyl)-1,3,4-oxadiazole]
The AC50 of the first is lower: 0.5 to 1 µM for the first, > 5 µM for the second.

Compared with Cc1nnc(C(=O)N2CCc3[nH]cnc3[C@@H]2c2cc3c(OC(F)(F)F)cccn3n2)o1 [Example 2219, (R)-(5-methyl-1,3,4-oxadiazol-2-yl)(4-(4-(trifluoromethoxy)pyrazolo [1,5-a]pyridin-2-yl)-6,7-dihydro-1H-imidazo[4,5-c]pyridin-5(4H)-yl)methanone], FC(F)c1nnc(N2CCc3[nH]cnc3[C@H]2c2cc3c(OC(F)(F)F)cccn3n2)o1 [Example 2251, (S)-2-(difluoromethyl)-5-(4-(4-(trifluoromethoxy)pyrazolo [1,5-a]pyridin-2-yl)-1,4,6,7-tetrahydro-5H-imidazo [4,5-c]pyridin-5-yl)-1,3,4-oxadiazole] is lower in AC50: > 5 µM for the first, < 0.5 µM for the second.

Compared with CC1(c2nnc(N3CCc4[nH]cnc4[C@@H]3c3cc4c(C5CC5)cccn4n3)o2)CC1 [Example 2226, (R)-2-(4-(4-cyclopropylpyrazolo [1,5-a]pyridin-2-yl)-1,4,6,7-tetrahydro-5H-imidazo [4,5-c]pyridin-5-yl)-5-(1-methylcyclopropyl)-1,3,4-oxadiazole], CC1(c2nnc(N3CCc4[nH]cnc4[C@H]3c3cc4c(C5CC5)cccn4n3)o2)CC1 [Example 2227, (S)-2-(4-(4-cyclopropylpyrazolo [1,5-a]pyridin-2-yl)-1,4,6,7-tetrahydro-5H-imidazo [4,5-c]pyridin-5-yl)-5-(1-methylcyclopropyl)-1,3,4-oxadiazole] is lower in AC50: > 5 µM for the first, 0.5 to 1 µM for the second.

Compared with CC(C)c1cccn2nc([C@H]3c4nc[nH]c4CCN3c3nnc(C4(C)CC4)o3)cc12 [Example 2228, (R)-2-(4-(4-isopropylpyrazolo [1,5-a]pyridin-2-yl)-1,4,6,7-tetrahydro-5H-imidazo [4,5-c]pyridin-5-yl)-5-(1-methylcyclopropyl)-1,3,4-oxadiazole], CC(C)c1cccn2nc([C@@H]3c4nc[nH]c4CCN3c3nnc(C4(C)CC4)o3)cc12 [Example 2229, (S)-2-(4-(4-isopropylpyrazolo [1,5-a]pyridin-2-yl)-1,4,6,7-tetrahydro-5H-imidazo [4,5-c]pyridin-5-yl)-5-(1-methylcyclopropyl)-1,3,4-oxadiazole] is lower in AC50: > 5 µM for the first, < 0.5 µM for the second.

First: CC(C)c1cccn2nc([C@H]3c4nc[nH]c4CCN3c3nnc(C(C)(F)F)o3)cc12 [Example 2230, (R)-2-(1,1-difluoroethyl)-5-(4-(4-isopropylpyrazolo[1,5-a]pyridin-2-yl)-1,4,6,7-tetrahydro-5H-imidazo[4,5-c]pyridin-5-yl)-1,3,4-oxadiazole]
Second: CC(F)(F)c1nnc(N2CCc3[nH]cnc3[C@H]2c2cc3c(Cl)cccn3n2)o1 [Example 2233, (S)-2-(4-(4-chloropyrazolo [1,5-a]pyridin-2-yl)-1,4,6,7-tetrahydro-5H-imidazo [4,5-c]pyridin-5-yl)-5-(1,1-difluoroethyl)-1,3,4-oxadiazole]
The AC50 of the first is higher: > 5 µM for the first, < 0.5 µM for the second.

Cc1ncccc1-c1nnc(N2CCc3[nH]cnc3[C@@H]2c2cc3c(Cl)cccn3n2)o1 [Example 2237, (R)-2-(4-(4-chloropyrazolo [1,5-a]pyridin-2-yl)-1,4,6,7-tetrahydro-5H-imidazo [4,5-c]pyridin-5-yl)-5-(2-methylpyridin-3-yl)-1,3,4-oxadiazole] and Clc1cccn2nc([C@H]3c4nc[nH]c4CCN3c3nnc(-c4cccnc4)o3)cc12 [Example 2263, (R)-2-(4-(4-chloropyrazolo [1,5-a]pyridin-2-yl)-1,4,6,7-tetrahydro-5H-imidazo[4,5-c]pyridin-5-yl)-5-(pyridin-3-yl)-1,3,4-oxadiazole] cannot be ordered by AC50: > 5 µM for the first, > 5 µM for the second.

Compared with O=C(c1cnc(-c2cnccn2)o1)N1CCc2[nH]cnc2[C@H]1c1cc2c(C(F)F)cccn2n1 [Example 2242, (S)-(4-(4-(difluoromethyl)pyrazolo[1,5-a]pyridin-2-yl)-1,4,6,7-tetrahydro-5H-imidazo [4,5-c]pyridin-5-yl)(2-(pyrazin-2-yl)oxazol-5-yl) methanone], O=C(c1cnc(-c2cnccn2)o1)N1CCc2[nH]cnc2[C@@H]1c1cc2c(C(F)F)cccn2n1 [Example 2243] is higher in AC50: 0.5 to 1 µM for the first, > 5 µM for the second.

FC(F)(F)Oc1cccn2nc([C@H]3c4nc[nH]c4CCN3c3nnc(C(F)(F)F)o3)cc12 [Example 2252, (R)-2-(4-(4-(trifluoromethoxy)pyrazolo[1,5-a]pyridin-2-yl)-1,4,6,7-tetrahydro-5H-imidazo[4,5-c]pyridin-5-yl)-5-(trifluoromethyl)-1,3,4-oxadiazole] and CC(C)c1cccn2nc([C@@H]3c4nc[nH]c4CCN3c3nnc(-c4cccnc4)o3)cc12 [Example 2261, (S)-2-(4-(4-isopropylpyrazolo [1,5-a]pyridin-2-yl)-1,4,6,7-tetrahydro-5H-imidazo [4,5-c]pyridin-5-yl)-5-(pyridin-3-yl)-1,3,4-oxadiazole] fall in the same range of AC50: 0.5 to 1 µM for the first, 0.5 to 1 µM for the second.
